Target: Matrix metalloproteinase-9 (MMP-9) (Homo sapiens, UniProt P14780)
Test: fluorogenic peptide
Format: biochemical

Sequence of Matrix metalloproteinase-9 (MMP-9) (P14780 107-707): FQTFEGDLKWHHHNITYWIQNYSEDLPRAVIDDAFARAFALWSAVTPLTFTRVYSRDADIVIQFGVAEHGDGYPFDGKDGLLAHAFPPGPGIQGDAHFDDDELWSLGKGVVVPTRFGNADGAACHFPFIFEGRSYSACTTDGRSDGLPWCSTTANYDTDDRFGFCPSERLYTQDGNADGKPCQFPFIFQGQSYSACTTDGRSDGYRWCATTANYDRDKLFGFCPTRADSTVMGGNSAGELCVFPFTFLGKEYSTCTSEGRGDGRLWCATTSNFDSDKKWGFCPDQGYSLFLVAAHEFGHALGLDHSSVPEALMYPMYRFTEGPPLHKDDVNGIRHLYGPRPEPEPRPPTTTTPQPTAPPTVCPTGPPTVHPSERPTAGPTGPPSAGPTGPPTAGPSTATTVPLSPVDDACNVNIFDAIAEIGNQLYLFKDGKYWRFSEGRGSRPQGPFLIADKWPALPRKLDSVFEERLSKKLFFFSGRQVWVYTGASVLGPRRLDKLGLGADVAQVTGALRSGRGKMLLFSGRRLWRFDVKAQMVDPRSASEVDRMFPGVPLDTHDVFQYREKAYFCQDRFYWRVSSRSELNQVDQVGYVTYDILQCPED

Q: With `CC(C)(NS(=O)(=O)c1ccc(Oc2ccc(F)cc2)cc1)C(=O)NO` [CP471474] as the compound, how does the IC50 read?
A: The IC50 was 11.9 ± 1 nM.

Reference: publication PMC3482625 (Analytical chemistry, 2011)
